Results: patent US20190240225A1, “COMBINATION OF A BCL-2 INHIBITOR AND A MCL-1 INHIBITOR, USES AND PHARMACEUTICAL COMPOSITIONS THEREOF” (LES LABORATOIRES SERVIER, priority 2016, published 2019)

Key:
Assay in all cases: MTT cell viability assay, myeloma cell line
Assay type in all cases: cell-based, human
AMO1 = conditions: Homo sapiens, single agent, read-out: IC50
Description: (§1) Cell lines: Human myeloma cell lines (HMCLs) were derived from primary myeloma cells cultured in RPMI 1640 medium supplemented with 5% fetal calf serum from and 3 ng/mL recombinant IL-6 for IL-6 dependent cell lines. HMCLs are representative of phenotypic and genomic heterogeneity and the variability in patient's response to therapy.
(§2) MTT assay: Cell viability is measured using MTT (3-(4,5-dimethylthiazol-2-yl)-2,5-diphenyltetrazolium bromide) colorimetric survival assay. Cells are incubated with compounds in 96-well plates containing a final volume of 100 μl/well time. (2R)-2-{[(5Sa)-5-{3-chloro-2-methyl-4-[2-(4-methylpiperazin-1-yl)ethoxy]phenyl}-6-(5-fluorofuran-2-yl)thieno[2,3-d]pyrimidin-4-yl]oxy}-3-(2-{[1-(2,2,2-trifluoroethyl)-1H-pyrazol-5-yl]methoxy}phenyl)propanoic acid (Compound 2) is used at 9 different concentrations accordingly to single agent sensitivity. N-(4-hydroxyphenyl)-3-{6-[((3S)-3-(4-morpholinylmethyl)-3,4-dihydro-2(1H)-isoquinolinyl)carbonyl]-1,3-benzodioxol-5-yl}-N-phenyl-5,6,7,8-tetrahydro-1-indolizine carboxamide hydrochloride (Compound 1, HCl) is used at a fixed dose—1 μM. At the end of each treatment, cells are incubated with 1 mg/mL MTT (50 μl MTT solution 2.5 mg/ml for each well) at 37° C. for 3 hours allowing the MTT to be metabolized. Lysis buffer (100 μl Lysis buffer: DMF (2:3)/SDS (1:3)) is added into each well to dissolve formazan cristals and after 18 h of incubation, absorbance in viable cells is measured at 570 nm using a spectrophotometer.
(§3) The sensitivity of 27 human multiple myeloma cell lines to Compound 1, Compound 2 or to Compound 2 in the presence of 1 μM of Compound 1 was analyzed by using MTT cell viability assay. 50% inhibitory concentrations (IC50, in nM) were determined.

ANBL6 = conditions: Homo sapiens, ANBL-6, single agent, read-out: IC50
Description: as §1, §2, §3

BCN = conditions: Homo sapiens, single agent, read-out: IC50
Description: as §1, §2, §3

JIM3 = conditions: Homo sapiens, single agent, read-out: IC50
Description: as §1, §2, §3

JJN3 = conditions: Homo sapiens, JJN-3, single agent, read-out: IC50
Description: as §1, §2, §3

KMM1 = conditions: Homo sapiens, KMM-1, single agent, read-out: IC50
Description: as §1, §2, §3

KMS11 = conditions: Homo sapiens, KMS-11, single agent, read-out: IC50
Description: as §1, §2, §3

KMS12BM = conditions: Homo sapiens, KMS-12-BM, single agent, read-out: IC50
Description: as §1, §2, §3

L363 = conditions: Homo sapiens, L-363, single agent, read-out: IC50
Description: as §1, §2, §3

LP1 = conditions: Homo sapiens, LP-1, single agent, read-out: IC50
Description: as §1, §2, §3

MM1S = conditions: Homo sapiens, MM1.S, single agent, read-out: IC50
Description: as §1, §2, §3

NAN1 = conditions: Homo sapiens, single agent, read-out: IC50
Description: as §1, §2, §3

NAN3 = conditions: Homo sapiens, single agent
Description: as §1, §2, §3

NAN6 = conditions: Homo sapiens, single agent, read-out: IC50
Description: as §1, §2, §3

NAN8 = conditions: Homo sapiens, single agent, read-out: IC50
Description: as §1, §2, §3

NAN9 = conditions: Homo sapiens, single agent, read-out: IC50
Description: as §1, §2, §3

NCI-H929 = conditions: Homo sapiens, single agent, read-out: IC50
Description: as §1, §2, §3

OPM2 = conditions: Homo sapiens, OPM-2, single agent, read-out: IC50
Description: as §1, §2, §3

RPMI8226 = conditions: Homo sapiens, RPMI-8226, single agent, read-out: IC50
Description: as §1, §2, §3

SBN = conditions: Homo sapiens, single agent, read-out: IC50
Description: as §1, §2, §3

U266 = conditions: Homo sapiens, U-266, single agent, read-out: IC50
Description: as §1, §2, §3

XG11 = conditions: Homo sapiens, single agent, read-out: IC50
Description: as §1, §2, §3

XG1 = conditions: Homo sapiens, single agent, read-out: IC50
Description: as §1, §2, §3

XG2 = conditions: Homo sapiens, single agent, read-out: IC50
Description: as §1, §2, §3

XG3 = conditions: Homo sapiens, single agent, read-out: IC50
Description: as §1, §2, §3

XG6 = conditions: Homo sapiens, single agent, read-out: IC50
Description: as §1, §2, §3

XG7 = conditions: Homo sapiens, single agent, read-out: IC50
Description: as §1, §2, §3

SMILES: Cl.O=C(c1cc(-c2cc3c(cc2C(=O)N2Cc4ccccc4C[C@H]2CN2CCOCC2)OCO3)n2c1CCCC2)N(c1ccccc1)c1ccc(O)cc1 [Compound 1, HCl, N-(4-hydroxyphenyl)-3-{6-[((3S)-3-(4-morpholinylmethyl)-3,4-dihydro-2(1H)-isoquinolinyl)carbonyl]-1,3-benzodioxol-5-yl}-N-phenyl-5,6,7,8-tetrahydro-1-indolizine carboxamide hydrochloride]
- IC50 (AMO1): 8.61 µM
- IC50 (ANBL6): 1.91 µM
- IC50 (BCN): 22.2 µM
- IC50 (JIM3): > 30 µM
- IC50 (JJN3): 2.69 µM
- IC50 (KMM1): 23.9 µM
- IC50 (KMS11): 10.5 µM
- IC50 (KMS12BM): 1.39 µM
- IC50 (L363): 7.58 µM
- IC50 (LP1): 9.77 µM
- IC50 (MM1S): 21.4 µM
- IC50 (NAN1): 6.66 µM
- IC50 (NAN3): 8.24 µM
- IC50 (NAN6): 4.07 µM
- IC50 (NAN8): 9.1 µM
- IC50 (NAN9): 23.2 µM
- IC50 (NCI-H929): 15.7 µM
- IC50 (OPM2): 6.46 µM
- IC50 (RPMI8226): 3.2 µM
- IC50 (SBN): 21.3 µM
- IC50 (U266): > 30 µM
- IC50 (XG11): 7.91 µM
- IC50 (XG1): 9.78 µM
- IC50 (XG2): 15.3 µM
- IC50 (XG3): 7.22 µM
- IC50 (XG6): 8.54 µM
- IC50 (XG7): 18.1 µM
